We go through one compound from patent US20060074109A1, “Use of inhibitors of 24-hydroxylase in the treatment of cancer” (Sapphire Therapeutics, Inc., priority 2004, published 2006).

What all share (format): cell-based, human
Test [1] relates to SK-OV-3 cells. The test can be described thus: Cell growth assay, crystal violet, 11 days. How it is done: (§1) The human ovarian adenocarcinoma cell line, OVCAR-3 (ATCC, Manassas, Va.) was maintained, as recommended by the supplier, in RPMI 1640 medium (Sigma Aldrich, St. Louis, Mo.) supplemented with 10% FBS, 10 μg/ml insulin, 0.25% glucose and antibiotics (100 IU/ml penicillin, 100 μg/ml streptomycin). Human ovarian adenocarcinoma cell lines UT-OC-1, UT-OC-2, UT-OC-3, UT-OC-4, UT-OC-5 (Grenman, S., Engblom, P., Rantanen, V., Klemi, P. and Isola, J., “Cytogenetic Characterization of Five New Ovarian Carcinoma Cell Lines,” Acta Obstet. Gynecol. Scand., 76:83 (1997)) and SK-OV-3 and a human keratinocyte cell line HaCaT were grown in DMEM (Sigma Aldrich) with 10% FBS and antibiotics (100 IU/ml penicillin, 100 μg/ml streptomycin), and monkey kidney COS cells were maintained in DMEM/F12 (Sigma Aldrich) with 5% FBS. All cell lines were kept at 37° C. in a humidified 95% air/5% CO2 incubator.
(§2) When OVCAR-3 cells were on the logarithmic growth phase (70% confluent) the growth assay was started. For cell growth assay, 2,000 cell/200 μl/well were plated on 96-well culture plates. […] Ethanol was used as a vehicle, and it was also included in the control. The medium containing ethanol vehicle and/or hormones were changed to a fresh one every third day. Cell growth samples were taken 0, 1, 3, 5, 7, 9 and 11 days after the treatment.
(§3) Relative cell numbers were quantified as described previously (Kueng W, Silber E, Eppenberger U. Quantification of cells cultured on 96-well plates. Anal. Biochem., 182:16-9 (1989)). Cells were fixed on the bottom of the wells by addition of 10 μl of 11% glutaraldehyde solution in 0.1% phosphate buffer to 100 μl of medium. The plate was shaken 500 cycles/min for 15 min, washed 3 times by submersion in de-ionised water and air-dried. Fixed cells were stained with 0.1% solution of crystal violet dissolved in de-ionised water. After 20 min incubation, excess dye was removed by carefully washing with de-ionised water. The plate was air-dried prior to a bound dye solubilisation in 100 μl of 10% acetic acid. Relative cell number was given as absorbance units by measuring the optical density (590 nm) from each well using Victor 1420 multilabel counter (Wallac, Turku, Finland). Six determinations were used to calculate the mean optical density ±SD in each concentration at each time point. The absorbance value of day 0 (an overnight culture of 2,000 cells/well) was set as 0 by subtracting it from each value obtained from adjacent time-point measurements (days 1-11), and based on these values growth curves were created. Experiments were repeated 3-5 times. Day 11 was used to compare the effect of hormone treatments and 24OHase inhibitor. Statistical analyses were done using Student's t-test.
(§4) Cell growth samples were obtained after 11 days treatment.

Test [2] deals with UT-OC-1 cells. The test can be described thus: Cell growth assay, crystal violet, 11 days. How it is done: as §1, §2, §3, §4
Test [3] concerns UT-OC-2 cells. The test can be described thus: Cell growth assay, crystal violet, 11 days. The settings on record: 200 nM VID 400 combined with vitamin D or retinoid compounds. How it is done:
as §1, §2, §3, §4

Test [4] concerns UT-OC-3 cells. The test can be described thus: Cell growth assay, crystal violet, 11 days. Conditions: 200 nM VID 400 combined with vitamin D or retinoid compounds. How it is done:
as §1, §2, §3, §4

In test [5] the test system is UT-OC-4 cells. Briefly: Cell growth assay, crystal violet, 11 days. How it is done:
as §1, §2, §3, §4

For test [6], the system named is UT-OC-5 cells. Briefly: Cell growth assay, crystal violet, 11 days. The settings on record: 200 nM VID 400 combined with hormones, especially 1,25(OH)2D3 or EB 1089, 11 days. How it is done:
as §1, §2, §3, §4

Test [7] deals with OVCAR-3 ovarian cancer cells. The test can be described thus: Cell growth, methylene blue uptake (Experiment VI). The settings on record: 200 nM VID400 with calcitriol. How it is done:
Culture conditions were the same as for Experiment I. Cell growth was measured using uptake of methylene blue (0.5% in 50% ethanol), followed by air drying and release of the dye in 1% sodium N-lauroyl sarcosine in PBS.

Regarding `O=C(NC[C@@H](c1ccccc1)n1ccnc1)c1ccc(-c2ccc(Cl)cc2)cc1` [VID400, 2-(R)-4′-Chlorobiphenyl-4-carboxylic acid (2-imidazol-1-yl-2-phenyl-ethyl)-amide], the “effect on growth inhibition” value is “potentiated this effect” in test [1] (200 nM VID 400 combined with 9-CRA); “augmented the growth inhibition” in test [2] (200 nM VID 400 combined with 10 μM 9-CRA, 11 days); “potentiated this effect” in test [5] (200 nM VID 400 combined with 10 μM ATRA or 9-CRA, 11 days). Moreover, the “effect on cell growth” value in test [1] (200 nM VID 400 combined with vitamin D compounds) is on record as “slightly inhibitory effect on growth”; in test [3] it was “growth inhibition was seen”; in test [4], “growth inhibition was seen”; in test [5] (200 nM VID 400 combined with 100 nM 1,25(OH)2D3 or EB 1089, 11 days) it was “cell growth was inhibited”; in test [6] it was “had an inhibitory effect on growth”; in test [7], “produced a further inhibition which was synergistic with calcitriol”. Further, the “inhibition of cell growth” value in test [2] (200 nM VID 400 combined with 100 nM EB 1089, 11 days) was “did so”. Also, the “augmentation of growth inhibition” value in test [2] (200 nM VID 400 combined with 10 μM ATRA, 11 days) is reported as “not seen”.
